Laboratory results published in the NIST ThermoML archive (doi:10.1021/acs.jced.6b00862).
± gives the expanded uncertainty stated by the source.

Assay: wn = mass fraction of the nth substance listed
Conditions: 298 K, 100 kPa, Liquid, Alternating current cell with electrodes

For OCCNCCO [diethanolamine] + O, the electrical conductivity (w1 = 0.0105) was 0.0194 ± 0.00039 S/m, the electrical conductivity (w1 = 0.021) was 0.0262 ± 0.00052 S/m and the electrical conductivity (w1 = 0.0315) was 0.0318 ± 0.00064 S/m. The electrical conductivity (w1 = 0.0419) was 0.0346 ± 0.00069 S/m and the electrical conductivity (w1 = 0.0523) was 0.0373 ± 0.00075 S/m.
